Laboratory results published in US8952177B2 (Janssen Pharmaceutica NV, priority 2013, dated 2015).
Where a name gives a salt, the structure may show the parent alone.

Columns and labels:
human FLAP = human FLAP (Homo sapiens (Human), UniProt P20292); experiment: FLAP binding assay (HTRF format); settings: human FLAP-containing Sf-9 membranes, 25 nM HTRF ligand, 2 h; average of runs; read-out: FLAP Binding wild type HTRF Ki
Protocol: The ability of the compounds of the present invention to treat a FLAP-mediated disease and/or disorder, or associated symptoms or complications thereof, was determined using the following procedures. Binding assay data represent the average value obtained from two different assay plates, with samples run in duplicate on each plate. Human whole blood assay data represent a single replicate on an assay plate using whole blood from at least one healthy donor.
The assay below is used to test the modulatory activity of compounds against FLAP. Human and mouse FLAP-encoding DNA was amplified by polymerase chain reaction and cloned into pFastBacl (Invitrogen) with a NH2-terminal 6-His tag for expression in Spodoptera frugiperda (Sf-9) cells. FLAP-containing membranes were prepared as was a FITC-labeled FLAP modulator (3-(3-(tert-butylthio)-1-(4-chlorobenzyl)-5-(quinolin-2-ylmethoxy)-1H-indol-2-yl)-2,2-dimethylpropanoic acid). The FLAP binding assay is performed in HTRF format (homogeneous time resolved fluorescence). […] The reaction is allowed to proceed for two hours after which the plate is read on an Envision plate reader in HTRF mode. Data are expressed as a HTRF ratio.
For human FLAP binding assays, data are analyzed with 3DX Explorer software. […] For analysis, data from multiple runs are averaged and each compound may be tested in 2 to 20 runs. Each run comprises two plates and each plate includes duplicates. Data from each plate is averaged and data are imported into 3DX. The data from multiple runs are aggregated as the average of duplicates of the calculated ratios in order to calculate Ki and IC50 values. Numbers in parentheses are the number of runs for the assay.

[1] = test system: leukotriene pathway in human whole blood (LTB4); experiment: Human whole blood assay (LTB4 after calcium ionophore A23187 stimulation); format: cell-based; settings: Homo sapiens, human whole blood diluted 1:1 in RPMI, 15 min pre-incubation, A23187 7 μg/mL for 30 min at 37° Celsius
Procedure, shortened: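 Heparinised human whole blood, diluted 1:1 in RPMI, was preincubated with compound for 15 min at 37° C. before stimulation with A23187 (7 μg/mL) for 30 min. Plasma LTB4 was measured by immunoassay kit and IC50 obtained by 4-parameter fit; single replicate per plate, blood from at least one donor.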

human FLAP, sequence (P20292 whole entry): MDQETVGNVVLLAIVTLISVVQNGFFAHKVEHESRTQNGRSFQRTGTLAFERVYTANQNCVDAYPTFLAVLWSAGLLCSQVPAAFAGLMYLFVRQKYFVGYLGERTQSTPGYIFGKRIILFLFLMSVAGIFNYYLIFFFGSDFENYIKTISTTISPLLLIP

| SMILES | Ki (human FLAP) [nM] | IC50 [1] [nM] |
| --- | --- | --- |
| Cn1ccc(COc2ccc3nc([C@@H]4CCCC[C@@H]4C(=O)O)n(Cc4ccc(OC(F)(F)F)cc4F)c3c2F)n1 (racemic) [Example 91, racemic cis-2-{7-Fluoro-1-[2-fluoro-4-(trifluoromethoxy)benzyl]-6-[(1-methyl-1H-pyrazol-3-yl)methoxy]-1H-benzimidazol-2-yl}cyclohexanecarboxylic acid] | 6.6 | 170 |
| Cn1ccc(COc2cc(F)c3nc([C@@H]4CCCC[C@@H]4C(=O)O)n(Cc4ccc(Br)cc4)c3c2)n1 (racemic) [Example 93, racemic cis-2-{1-(4-Bromobenzyl)-4-fluoro-6-[(1-methyl-1H-pyrazol-3-yl)methoxy]-1H-benzimidazol-2-yl}cyclohexanecarboxylic acid] | 1.1 | 550 |
| Cn1ccc(COc2cc(F)c3nc([C@@H]4CCCC[C@@H]4C(=O)O)n(Cc4ccc(Br)cc4F)c3c2)n1 (racemic) [Example 94, racemic cis-2-{1-(4-Bromo-2-fluorobenzyl)-4-fluoro-6-[(1-methyl-1H-pyrazol-3-yl)methoxy]-1H-benzimidazol-2-yl}cyclohexanecarboxylic acid] | 2.4 | 340 |
| Cn1ccc(COc2cc(F)c3nc([C@@H]4CCCC[C@@H]4C(=O)O)n(Cc4ccc(OC(F)(F)F)cc4)c3c2)n1 (racemic) [Example 95, racemic cis-2-{4-Fluoro-6-[(1-methyl-1H-pyrazol-3-yl)methoxy]-1-[4-(trifluoromethoxy)benzyl]-1H-benzimidazol-2-yl}cyclohexanecarboxylic acid as the HCl salt] | 3.6 | 1350 |
| Cn1ccc(COc2cc(F)c3nc([C@H]4CCCC[C@H]4C(=O)O)n(Cc4ccc(OC(F)(F)F)cc4F)c3c2)n1 (racemic) [Example 96, racemic cis-2-{4-Fluoro-1-[2-fluoro-4-(trifluoromethoxy)benzyl]-6-[(1-methyl-1H-pyrazol-3-yl)methoxy]-1H-benzimidazol-2-yl}cyclohexanecarboxylic acid as the HCl salt] | 7 | 810 |
| Cc1ccc(Cn2c([C@@H]3CCCC[C@@H]3C(=O)O)nc3c(F)cc(OCc4ccn(C)n4)cc32)cc1 (racemic) [Example 97, racemic cis-2-{4-Fluoro-1-(4-methylbenzyl)-6-[(1-methyl-1H-pyrazol-3-yl)methoxy]-1H-benzimidazol-2-yl}cyclohexanecarboxylic acid as the HCl salt] | 7.5 | 300 |
| Cc1cc(OC(F)(F)F)ccc1Cn1c([C@@H]2CCCC[C@@H]2C(=O)O)nc2ccc(OCc3ccn(C)n3)cc21 (racemic) [Example 99, racemic cis-2-{6-[(1-Methyl-1H-pyrazol-3-yl)methoxy]-1-[2-methyl-4-(trifluoromethoxy)benzyl]-1H-benzimidazol-2-yl}cyclohexanecarboxylic acid] | 18 | 1060 |
| Cc1ccc(COc2ccc3nc([C@@H]4CCCC[C@@H]4C(=O)O)n(Cc4ccc(OC(F)(F)F)cc4C)c3c2)nc1 (racemic) [Example 100, racemic cis-2-{6-[(5-Methylpyridin-2-yl)methoxy]-1-[2-methyl-4-(trifluoromethoxy)benzyl]-1H-benzimidazol-2-yl}cyclohexanecarboxylic acid] | 19 | 2540 |
| Cc1ccc(COc2ccc3nc([C@@H]4CCCC[C@@H]4C(=O)O)n(Cc4ccc(OC(F)(F)F)cc4Cl)c3c2)nc1 (racemic) [Example 101, racemic cis-2-{1-[2-Chloro-4-(trifluoromethoxy)benzyl]-6-[(5-methylpyridin-2-yl)methoxy]-1H-benzimidazol-2-yl}cyclohexanecarboxylic acid as the HCl salt] | 21 | 900 |
| Cn1ccc(COc2ccc3nc([C@@H]4CCCC[C@@H]4C(=O)O)n(Cc4ccc(OC(F)(F)F)cc4Cl)c3c2)n1 (racemic) [Example 103, racemic cis-2-{1-[2-Chloro-4-(trifluoromethoxy)benzyl]-6-[(1-methyl-1H-pyrazol-3-yl)methoxy]-1H-benzimidazol-2-yl}cyclohexanecarboxylic acid as the HCl salt] | 30 | 1010 |
| Cn1ccc(COc2ccc3nc([C@@H]4CCCC[C@@H]4C(=O)O)n(Cc4ccc(OC(F)(F)F)cc4Br)c3c2)n1 (racemic) [Example 104, racemic cis-2-{1-[2-Bromo-4-(trifluoromethoxy)benzyl]-6-[(1-methyl-1H-pyrazol-3-yl)methoxy]-1H-benzimidazol-2-yl}cyclohexanecarboxylic acid as the HCl salt] | 30 | 690 |
| Cc1cc(Cn2c([C@@H]3CCCC[C@@H]3C(=O)O)nc3ccc(OCc4ccn(C)n4)cc32)ccc1OC(F)(F)F (racemic) [Example 106, racemic cis-2-{6-[(1-Methyl-1H-pyrazol-3-yl)methoxy]-1-[3-methyl-4-(trifluoromethoxy)benzyl]-1H-benzimidazol-2-yl}cyclohexanecarboxylic acid as the HCl salt] | 5.4 | 1160 |
| Cc1ccc(Cn2c([C@@H]3[C@H](C(=O)O)C3(C)C)nc3ccc(OCc4ccc(C)cn4)cc32)cc1 (racemic) [Example 121, racemic cis-2,2-Dimethyl-3-{1-(4-methylbenzyl)-6-[(5-methylpyridin-2-yl)methoxy]-1H-benzimidazol-2-yl}cyclopropanecarboxylic acid] | 150 | 2110 |
| Cn1ccc(COc2ccc3nc([C@@H]4[C@H](C(=O)O)C4(C)C)n(Cc4ccc(OC(F)(F)F)cc4)c3c2)n1 (racemic) [Example 122, racemic cis-2,2-Dimethyl-3-{6-[(1-methyl-1H-pyrazol-3-yl)methoxy]-1-[4-(trifluoromethoxy)benzyl]-1H-benzimidazol-2-yl}cyclopropanecarboxylic acid] | ~830 | 3400 |
| Cc1cnc(COc2ccc3nc([C@@H]4[C@H](C(=O)O)C4(C)C)n(Cc4ccc(Br)cc4)c3c2)c(F)c1 (racemic) [Example 132, racemic cis-3-{1-(4-Bromobenzyl)-6-[(3-fluoro-5-methylpyridin-2-yl)methoxy]-1H-benzimidazol-2-yl}-2,2-dimethylcyclopropanecarboxylic acid] | 2.9 | 270 |
| Cn1ccc(COc2ccc3nc([C@@H]4[C@H](C(=O)O)C4(C)C)n(Cc4ccc(Br)cc4)c3c2)n1 (racemic) [Example 134, racemic cis-3-{1-(4-Bromobenzyl)-6-[(1-methyl-1H-pyrazol-3-yl)methoxy]-1H-benzimidazol-2-yl}-2,2-dimethylcyclopropanecarboxylic acid] | ~500 | 860 |
| Cc1cnc(COc2ccc3nc([C@H]4CCCC[C@H]4C(=O)O)n(Cc4c(F)cc(-c5ccc(C(F)(F)F)cc5)cc4F)c3c2)c(F)c1 (racemic) [Example 137, racemic cis-2-(1-((3,5-difluoro-4′-(trifluoromethyl)-[1,1′-biphenyl]-4-yl)methyl)-6-((3-fluoro-5-methylpyridin-2-yl)methoxy)-1H-benzo[d]imidazol-2-yl)cyclohexanecarboxylic acid] | 0.66 | 91 |
| Cc1ccc(COc2ccc3nc([C@H]4CCCC[C@H]4C(=O)O)n(Cc4c(F)cc(-c5ccc(C(F)(F)F)cc5)cc4F)c3c2)nc1 (racemic) [Example 138, racemic cis-2-(1-{[3,5-Difluoro-4′-(trifluoromethyl)biphenyl-4-yl]methyl}-6-[(5-methylpyridin-2-yl)methoxy]-1H-benzimidazol-2-yl)cyclohexanecarboxylic acid] | 2.5 | 97 |
| Cc1ccc(COc2ccc3nc([C@H]4CCCC[C@H]4C(=O)O)n(Cc4cccc(-c5ccc(C(F)(F)F)cc5)c4)c3c2)nc1 (racemic) [Example 145, racemic cis-2-(6-[(5-Methylpyridin-2-yl)methoxy]-1-{[4′-(trifluoromethyl)biphenyl-3-yl]methyl}-1H-benzimidazol-2-yl)cyclohexanecarboxylic acid] | 7.2 | 920 |
| Cn1ccc(COc2ccc3nc([C@@H]4CCCC[C@@H]4C(=O)O)n(Cc4cccc(-c5ccc(C(F)(F)F)cc5)c4)c3c2)n1 (racemic) [Example 150, racemic cis-2-(6-[(1-Methyl-1H-pyrazol-3-yl)methoxy]-1-{[4′-(trifluoromethyl)biphenyl-3-yl]methyl}-1H-benzimidazol-2-yl)cyclohexanecarboxylic acid] | 1.4 | 140 |
